Test results from patent publication US20070077283A1, “METHOD OF ENHANCING TRANSMUCOSAL DELIVERY OF THERAPEUTIC COMPOUNDS” (Nastech Pharmaceutical Company Inc., priority 2005, published 2007).

Columns and labels:
[1] = tested on: human-derived tracheal/bronchial epithelial cells (EpiAirway Tissue Model); assay: in vitro
Summary of the method: (§1)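 EpiAirway cultures treated 1 h with each lipid; PBS as negative control. LDH released apically and basolaterally measured colorimetrically at 490 nm after 30 min substrate incubation at room temperature. Cytotoxicity expressed as percent of 1% Triton X-100 lysis control, set to 100%.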

in vitro = settings: % Cytotoxicity
Summary of the method: as §1

[2] = tested on: human-derived tracheal/bronchial epithelial cells (EpiAirway Tissue Model); assay: FITC-Dextran permeation assay across epithelial cell monolayer; type: cell-based; settings: for Mean % FD3 Permeation: FITC-dextran 3000 (Table 4); for permeation of FD3 relative to negative controls: text summary of Table 4
Summary of the method: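 Formulations applied apically to EpiAirway tissue inserts, shaken ~100 rpm 1.5 hours at 37 °C, with FITC-dextran (3-500 kDa) added apically. Basolateral fluorescence read at 470 nm in triplicate; result expressed as percent of FITC-dextran crossing apical to basolateral.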

[3] = tested on: human-derived tracheal/bronchial epithelial cells (EpiAirway Tissue Model); assay: Transepithelial electrical resistance (TER) of an epithelial cell monolayer; type: cell-based; settings: for activity at 500 µM / activity at 1000 µM: Homo sapiens, Epithelial cell, 1 h, read-out: Mean % of Original TER Value; for activity at 500 µM: lipid 500 μM (Table 4); for activity at 1000 µM: lower value = greater TER reduction (Table 4); for TER reduction within 15 minutes: 15 minute incubation
Summary of the method: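 EpiAirway human tracheal/bronchial epithelial tissue inserts, fed daily during recovery; resistance read with EVOM voltohmmeter in Endohm-12 chamber in MatTek medium, blank-insert background (about 5-20 ohms) measured. TER normalised to tissue surface area, expressed as Ohms*cm2 and percent of original TER; lower TER taken as enhanced permeation.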

[4] = in the presence of FITC-Dextran FD3 (Table 6)
[5] = in the presence of FITC-Dextran FD10 (Table 6)
[6] = in the presence of FITC-Dextran FD40 (Table 6)
[7] = in the presence of FITC-Dextran FD70 (Table 6)
[8] = in the presence of FITC-Dextran FD500 (Table 6)
[9] = lipid 1000 μM in Buffer I, apical LDH release
[10] = lipid 1000 μM in Buffer II, apical LDH release
[11] = lipid 1000 μM, percent decrease in TER from time zero

SMILES	% Relative Cytotoxic Effect (LDH) [1, 4]	% Relative Cytotoxic Effect (LDH) [1, 5]	% Relative Cytotoxic Effect (LDH) [1, 6]	% Relative Cytotoxic Effect (LDH) [1, 7]	% Relative Cytotoxic Effect (LDH) [1, 8]	Mean % Relative Cytotoxic Effect (LDH) ([1]; lipid 1000 μM (Table 4))	cytotoxicity at 1 h, 1000 μM (in vitro; [9])	cytotoxicity at 1 h, 1000 μM (in vitro; [10])	% FITC-Dextran Permeation FD10 ([2]; lipid 1000 μM)	% FITC-Dextran Permeation FD40 ([2]; lipid 1000 μM)	% FITC-Dextran Permeation FD70 ([2]; lipid 1000 μM)	% FITC-Dextran Permeation FD500 ([2]; lipid 1000 μM)	% FITC-Dextran Permeation FD3 ([2]; lipid 1000 μM (Table 5))	% FD3 Permeation ([2]; lipid 1000 μM in Buffer I)	% FD3 Permeation ([2]; lipid 1000 μM in Buffer II)	Mean % FD3 Permeation ([2]; lipid 1000 μM)	permeation of FD3 relative to negative controls [2]	activity at 1000 µM ([3]; lipid 1000 μM)	% Original TER ([3]; lipid 1000 μM in Buffer I)	% Original TER ([3]; lipid 1000 μM in Buffer II)	further results
CCCCCCCCCCCCCCCCOC[C@H](COP(=O)([O-])OCC[N+](C)(C)C)OC(C)=O [C16-02:0 PC(C16 PAF), 1-O-Hexadecyl-2-Acetoyl-sn-Glycero-3-Phosphocholine]	32%	35%	31%	35%	26%	32%	43%	13%	6%	2%	2%	0%	22%	41%	27%	14%	enhanced the permeation of FD3 above that of the negative controls	2%	1%	8%	Mean % Relative Cytotoxic Effect (LDH) ([1]; lipid 500 μM (Table 4)): 20%; cytotoxicity at 1 h (in vitro; lipid / PYY 10 mg/mL): 23%; Mean % FD3 Permeation ([2]; lipid 500 μM): 5%; activity at 500 µM [3]: 27%; TER reduction within 15 minutes ([3]; lipid 1000 μM): levels equivalent to that of the Triton-X100™ control
CCCCCCCCCCCCCCCC(=O)OC[C@H](COP(=O)([O-])OCC[N+](C)(C)C)OC(=O)CCCC(=O)O [PGPC, 1-Palmitoyl-2-Glutaroyl-sn-Glycero-3-Phosphocholine]																					LDH levels ([1]; human, 1 h): below 30%; Cytotoxic Effect (LDH) 1 hr. Post-treatments ([1]; human, 1 h, 62.5 μM): 2%; Cytotoxic Effect (LDH) 1 hr. Post-treatments ([1]; human, 1 h, 125 μM): 2%; Cytotoxic Effect (LDH) 1 hr. Post-treatments ([1]; human, 1 h, 250 μM): 4%; Cytotoxic Effect (LDH) 1 hr. Post-treatments ([1]; human, 1 h, 500 μM): 13%; Cytotoxic Effect (LDH) 1 hr. Post-treatments ([1]; human, 1 h, 1000 μM): 21%; cytotoxicity at 1 h, 500 μM (in vitro; human): 2%; % FITC-Dextran Permeation FD3 ([2]; lipid 500 μM (Table 5)): 10%; Mean TER Reduction 1 hr. Post-treatment ([3]; lipid 62.5 μM): 21%; Mean TER Reduction 1 hr. Post-treatment ([3]; lipid 125 μM): 28%; Mean TER Reduction 1 hr. Post-treatment ([3]; lipid 250 μM): 48%; Mean TER Reduction 1 hr. Post-treatment ([3]; lipid 500 μM): 80%; Mean TER Reduction 1 hr. Post-treatment [3, 11]: 92%
CCCCCCCCCCCCCCCCCCOC[C@H](COP(=O)([O-])OCC[N+](C)(C)C)OC(C)=O [C18-02:0 PC(C18 PAF), 1-O-Octadecyl-2-Acetoyl-sn-Glycero-3-Phosphocholine]									8%	3%	2%	0%	24%	42%	27%	8%	enhanced the permeation of FD3 above that of the negative controls	1%	1%	7%	Mean % Relative Cytotoxic Effect (LDH) ([1]; human, 1 h, 500 μM): 8%; % Cytotoxicity ([1]; human, 1 h, 1000 μM): 17%; Mean % Relative Cytotoxic Effect (LDH) ([1]; human, 1 h, 1000 μM): 20%; cytotoxicity at 1 h, 1000 μM (in vitro; human): 33%; Mean % FD3 Permeation ([2]; lipid 500 μM): 2%; activity at 500 µM [3]: 44%; TER reduction within 15 minutes ([3]; lipid 1000 μM): levels equivalent to that of the Triton-X100™ control
CCCCCCCCCCCCCCCC(=O)OC[C@H](COP(=O)([O-])OCC[N+](C)(C)C)OC(=O)CCCC=O [POVPC, 1-Palmitoyl-2-(5′-oxo-Valeroyl)-sn-Glycero-3-Phosphocholine]	19%	11%	13%	13%	12%	9%	15%	15%	3%	1%	0.3%	0%	10%	53%	9%	10%	enhanced the permeation of FD3 above that of the negative controls	0%	25%	17%	Cytotoxic Effect (LDH) 1 hr. Post-treatments ([1]; lipid 62.5 μM, percent of Triton-X100 LDH levels): 2%; Cytotoxic Effect (LDH) 1 hr. Post-treatments ([1]; lipid 125 μM, percent of Triton-X100 LDH levels): 2%; Cytotoxic Effect (LDH) 1 hr. Post-treatments ([1]; lipid 250 μM, percent of Triton-X100 LDH levels): 5%; Cytotoxic Effect (LDH) 1 hr. Post-treatments ([1]; lipid 500 μM, percent of Triton-X100 LDH levels): 11%; LDH levels for each incubation time period ([1]; lipid 1000 μM, 15, 30 and 60 minute incubation): below 10%; Cytotoxic Effect (LDH) 1 hr. Post-treatments ([1]; lipid 1000 μM, percent of Triton-X100 LDH levels): 21%; permeation of FITC-dextran 3000 (FD3) over time ([2]; 1000 μM, 15, 30, 60 minutes): time-dependent permeation; % FITC-Dextran Permeation FD3 ([2]; lipid 500 μM (Table 5)): 2%; TER reduction by 60 minutes ([3]; 1000 μM, 60 minutes): levels nearly equivalent to that of the Triton-X100™ control; TER reduced to % below that of the PBS control ([3]; 1000 μM, within 15 minutes): 20%; TER reduced to % of the PBS control ([3]; 1000 μM, within 30 minutes): about 25%; Mean TER Reduction 1 hr. Post-treatment ([3]; lipid 62.5 μM): 23%; Mean TER Reduction 1 hr. Post-treatment ([3]; lipid 125 μM): 32%; Mean TER Reduction 1 hr. Post-treatment ([3]; lipid 250 μM): 52%; Mean TER Reduction 1 hr. Post-treatment ([3]; lipid 500 μM): 87%; Mean TER Reduction 1 hr. Post-treatment [3, 11]: 93%
